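96-well plates; 48 h exposure; 5 concentrations. Endpoints by linear interpolation between flanking doses. Not reached: highest tested concentration assigned. TGI marks complete inhibition of growth.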
Key:
Assay in all cases: NCI tumour cell line growth inhibition, 48 h
[1] = system: SN12K1 renal
[2] = system: SN12C renal
[3] = system: HCT-15 colon
[4] = system: HOP-62 NSCLC
[5] = system: SNB-75 CNS
[6] = system: HOP-92 NSCLC
[7] = system: CAKI-1 renal
[8] = system: OVCAR-4 ovarian
[9] = system: SK-MEL-5 melanoma
[10] = system: M19-MEL melanoma
[11] = system: HCT-116 colon
[12] = system: NCI-H226 lung
[13] = system: SNB-78 CNS
[14] = system: NCI/ADR-RES ovarian
[15] = system: P388/ADR leukemia
[16] = system: KM12 colon
[17] = system: SF-539 CNS
[18] = system: SNB-19 CNS
[19] = system: SK-MEL-2 melanoma
[20] = system: SW-620 colon
[21] = system: NCI-H522 lung
[22] = system: EKVX NSCLC
[23] = system: UACC-257 melanoma
[24] = system: UACC-62 melanoma
[25] = system: MOLT-4 leukemia
[26] = system: RPMI-8226 leukemia
[27] = system: SF-295 CNS
[28] = system: NCI-H23 lung
[29] = system: HT29 colon
[30] = system: UO-31 renal
[31] = system: OVCAR-3 ovarian
[32] = system: MALME-3M melanoma
[33] = system: K-562 leukemia
[34] = system: HCC-2998 colon
[35] = system: U251 CNS
[36] = system: CCRF-CEM leukemia
[37] = system: MCF7 breast
[38] = system: A549 NSCLC
[39] = system: NCI-H460 lung
[40] = system: HOP-18 NSCLC
[41] = system: DMS 114 small cell lung
[42] = system: OVCAR-5 ovarian
[43] = system: LOX IMVI melanoma
[44] = system: IGROV1 ovarian
[45] = system: XF 498 CNS
[46] = system: HL-60(TB) leukemia
[47] = system: RXF 393 renal
[48] = system: DLD-1 colon
[49] = system: P388 leukemia
[50] = system: DMS 273 small cell lung
[51] = system: KM20L2 colon
[52] = system: COLO 205 colon
[53] = system: SK-OV-3 ovarian
[54] = system: OVCAR-8 ovarian
[55] = system: SF-268 CNS
[56] = system: SK-MEL-28 melanoma
[57] = system: A498 renal
[58] = system: SR leukemia
[59] = system: LXFL 529 NSCLC
[60] = system: ACHN renal
[61] = system: M14 melanoma
[62] = system: 786-0 renal
[63] = system: RXF-631 renal
[64] = system: TK-10 renal

In the case of CN(C(=O)c1ccc(OCCCC(=O)O)c(Cl)c1Cl)C1CCCC1, the TGI [1] is reported as greater than 100 µM, the TGI [2] is reported as greater than 100 µM and the TGI [3] is reported as greater than 100 µM. For the same compound, the TGI [4] was greater than 100 µM, the TGI [5] was greater than 100 µM and the TGI [6] was greater than 100 µM. For the same compound, the TGI [7] was greater than 100 µM, the TGI [8] was greater than 100 µM and the TGI [9] was greater than 100 µM. It also gave a TGI [10] greater than 100 µM, a TGI [11] greater than 100 µM and a TGI [12] greater than 100 µM. For the same compound, the TGI [13] was greater than 100 µM, the TGI [14] was greater than 100 µM and the TGI [15] was greater than 100 µM. It also gave a TGI [16] greater than 100 µM, a TGI [17] greater than 100 µM and a TGI [18] greater than 100 µM. It also gave a TGI [19] greater than 100 µM, a TGI [20] greater than 100 µM and a TGI [21] greater than 100 µM. For the same compound, the TGI [22] was greater than 100 µM, the TGI [23] was greater than 100 µM and the TGI [24] was greater than 100 µM. The TGI [25] was greater than 100 µM, the TGI [26] was greater than 100 µM and the TGI [27] was greater than 100 µM. The TGI [28] was greater than 100 µM, the TGI [29] was greater than 100 µM and the TGI [30] was greater than 100 µM. For the same compound, the TGI [31] was greater than 100 µM, the TGI [32] was greater than 100 µM and the TGI [33] was greater than 100 µM. It also gave a TGI [34] greater than 100 µM, a TGI [35] greater than 100 µM and a TGI [36] greater than 100 µM. For the same compound, the TGI [37] was greater than 100 µM, the TGI [38] was greater than 100 µM and the TGI [39] was greater than 100 µM. It also gave a TGI [40] greater than 100 µM, a TGI [41] greater than 100 µM and a TGI [42] greater than 100 µM. The TGI [43] was greater than 100 µM, the TGI [44] was greater than 100 µM and the TGI [45] was 85.2 µM. It also gave a TGI [46] greater than 100 µM, a TGI [47] greater than 100 µM and a TGI [48] greater than 100 µM. The TGI [49] was greater than 100 µM, the TGI [50] was greater than 100 µM and the TGI [51] was greater than 100 µM. For the same compound, the TGI [52] was greater than 100 µM, the TGI [53] was greater than 100 µM and the TGI [54] was greater than 100 µM. It also gave a TGI [55] greater than 100 µM, a TGI [56] greater than 100 µM and a TGI [57] greater than 100 µM.
COC(=O)/C(=N\NC(N)=O)C(C(=O)C=C(C)C)C(=O)C(=O)Nc1ccc(Cl)c(Cl)c1 (centres undefined) was tested, and the TGI [2] was greater than 100 µM, the TGI [3] was greater than 100 µM and the TGI [4] was greater than 100 µM. For the same compound, the TGI [5] was greater than 100 µM, the TGI [7] was greater than 100 µM and the TGI [8] was greater than 100 µM. For the same compound, the TGI [58] was greater than 100 µM, the TGI [9] was greater than 100 µM and the TGI [10] was greater than 100 µM. For the same compound, the TGI [11] was greater than 100 µM, the TGI [12] was greater than 100 µM and the TGI [13] was greater than 100 µM. The TGI [59] was greater than 100 µM, the TGI [16] was greater than 100 µM and the TGI [17] was greater than 100 µM. For the same compound, the TGI [18] was greater than 100 µM, the TGI [19] was greater than 100 µM and the TGI [20] was greater than 100 µM. For the same compound, the TGI [21] was greater than 100 µM, the TGI [22] was greater than 100 µM and the TGI [23] was greater than 100 µM. The TGI [24] was greater than 100 µM, the TGI [25] was greater than 100 µM and the TGI [27] was greater than 100 µM. The TGI [28] was greater than 100 µM, the TGI [29] was greater than 100 µM and the TGI [30] was greater than 100 µM. It also gave a TGI [31] greater than 100 µM, a TGI [32] greater than 100 µM and a TGI [33] greater than 100 µM. The TGI [34] was greater than 100 µM, the TGI [35] was greater than 100 µM and the TGI [60] was greater than 100 µM. It also gave a TGI [36] greater than 100 µM, a TGI [38] greater than 100 µM and a TGI [39] greater than 100 µM. The TGI [40] was greater than 100 µM, the TGI [41] was greater than 100 µM and the TGI [42] was greater than 100 µM. For the same compound, the TGI [61] was greater than 100 µM, the TGI [62] was greater than 100 µM and the TGI [43] was greater than 100 µM. The TGI [63] was greater than 100 µM, the TGI [64] was greater than 100 µM and the TGI [44] was greater than 100 µM. For the same compound, the TGI [45] was greater than 100 µM, the TGI [46] was greater than 100 µM and the TGI [47] was greater than 100 µM. The TGI [48] was greater than 100 µM, the TGI [50] was greater than 100 µM and the TGI [51] was greater than 100 µM. The TGI [52] was greater than 100 µM, the TGI [53] was greater than 100 µM and the TGI [54] was greater than 100 µM. For the same compound, the TGI [55] was greater than 100 µM, the TGI [56] was greater than 100 µM and the TGI [57] was greater than 100 µM.
